18 molecules from PMC11441021, “Novel hybrids of 1,2,3-triazole-benzoxazole: design, synthesis, and assessment of DprE1 enzyme inhibitors using fluorometric assay and computational analysis” (Journal of Enzyme Inhibition and Medicinal Chemistry, 2024) can be followed below.

The test system of data set [1] is mouse fibroblast 3T3 cells. Nature of the data set: MTT cytotoxicity assay on mouse fibroblast 3T3 cells. Format: cell-based. To be noted: for IC50: NIH3T3, MTT assay, read-out: 3T3 cell IC50; for Selectivity index: IC50 (μg/mL)/MIC (μg/mL), 3T3 cells vs Mtb H37Rv. (Formazan colour is commonly taken as a measure of viable cells.)
For the next data set, the target named is DprE1 (Mycobacterium tuberculosis, UniProt P9WJF1). Nature of the data set: DprE1 inhibition (resazurin redox indicator, fluorometric) assay. Format: biochemical. To be noted: purified DprE1, GGPR substrate. On the procedure:
For the identification and validation of the biological target for this new series of 1,2,3-triazole-linked benzoxazoles, compounds displaying antimycobacterial activity below 6 μg/mL and showcasing diverse side chains were assessed against the purified DprE1 protein (Table 1). The assessment of the compounds’ ability to inhibit DprE1 activity was conducted through an in-vitro assay. This involved purified DprE1 protein, geranylgeranyl-phosphoryl-β-d-ribose (GGPR) substrate, and resazurin as a redox indicator. The synthesised molecules were tested for their impact on DprE1 activity within this experimental setup. The initial rates of activity, characterised by increasing concentrations of the compound, were measured and compared to the control compound TCA-1. The half maximal inhibitory concentration (IC50) was then calculated for each synthesised compound, quantitatively assessing their inhibitory effect. […] The promising results prompted us to delve deeper into these compounds through initial assessments of their druggability profiles and validation via computational studies. This approach aims to enhance our understanding of the structural features involved in the inhibition mechanism of the DprE1 enzyme, utilising docking and molecular dynamics (MD) simulation studies.
A redox indicator assay was conducted following a previously described protocol, utilising the reduction of resazurin to its fluorescent form, resorufin. In this assay, the DprE1 cofactor FAD undergoes reduction to FADH2, while the C-2 hydroxyl group of the substrate GGPR is oxidised to form a keto-intermediate known as geranylgeranylphosphoryl-β-d-2′-keto-erythro-penta-furanose (GGPX)[11]^,[40]. The inhibition of DprE1 was assessed using an activity assay, with the half maximal inhibitory concentration (IC50) determined for each tested compound. Intermediate plates of compounds were prepared in V-bottomed 96-well plates, where the compounds were serially diluted twofold in DMSO. Subsequently, 1 µL of each compound dilution was pipetted in triplicate into Greiner black-bottomed 384 plates. The master mix (19 µL), comprising 5 µM DprE1, 50 mM Hepes pH 7.5, 100 mM NaCl, and 100 µM resazurin, was added to the compounds in the plate. The assay was initiated with 5 µL of 1 mM GGPR using the pump on the POLARstar Omega plate reader (BMG Labtech). Emission was measured at 590 nm with excitation at 530 nm at 37 °C[41]^. IC50 values were calculated using Prism GraphPad, fitting the data to a four-parameter dose–response curve. The initial rates of activity were used for the calculations, and fluorescence units were converted to µM resazurin reduced by referencing a resorufin standard curve.
(Alamar Blue is a resazurin reagent that responds to reducing activity.)

The test system of data set [2] is M. tuberculosis H37Rv strain. Briefly: Resazurin microtiter assay (REMA), MIC against Mtb H37Rv. Format: cell-based, Mycobacterium tuberculosis. To be noted: MTB H37Rv (ATCC 27294), 7 days incubation, text calls it MIC; for MIC50: Mycobacterium tuberculosis, ATCC 27294 / H37Rv, 168 h.
The mark [3] stands for this setting: Mus musculus, mouse fibroblast 3T3 cells, cytotoxicity.

Structures are written as SMILES. Values after ≈ are worked out from the molar mass of the structure shown. Values joined by “and” are separate entries in the source; they are usually repeats but may differ in a detail not shown here. Identical values can stand only once. Where only a bound is given, the exact number is not on record here.

DprE1, sequence (P9WJF1 whole entry): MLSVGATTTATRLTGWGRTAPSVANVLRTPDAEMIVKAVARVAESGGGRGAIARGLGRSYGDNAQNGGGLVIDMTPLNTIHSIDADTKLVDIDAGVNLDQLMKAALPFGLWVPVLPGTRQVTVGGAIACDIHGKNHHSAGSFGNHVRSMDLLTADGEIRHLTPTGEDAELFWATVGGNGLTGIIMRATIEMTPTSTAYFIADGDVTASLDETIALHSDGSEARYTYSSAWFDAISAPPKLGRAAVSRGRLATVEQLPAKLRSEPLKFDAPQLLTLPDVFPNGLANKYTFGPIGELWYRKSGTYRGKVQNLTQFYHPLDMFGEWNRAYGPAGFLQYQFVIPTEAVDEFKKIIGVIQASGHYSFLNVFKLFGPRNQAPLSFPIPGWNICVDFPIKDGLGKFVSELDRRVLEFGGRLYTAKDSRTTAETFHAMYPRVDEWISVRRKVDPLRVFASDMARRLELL

The term IC50 denotes the midpoint of a concentration-inhibition curve. As a reminder, the inhibition is how much of the control response was suppressed. Turning to `O=c1[nH]cc(F)c(=O)[nH]1` [5-Fluorouracil, reference compound], the 50% inhibitory concentration (IC50) in data set [1] (setting [3]) was 53.7 µg/mL (≈ 413 µM). In addition, in data set [1] (Mus musculus, NIH3T3, MTT assay, 50 μg/mL, read-out: percentage inhibition of 3T3 cells), the inhibition at 50 µg/mL is > 42%.
One may read the MIC50 as an inhibitory concentration at the 50% level, which refers to growth in some studies and to a panel of isolates in others. A low value points to greater potency. `O=C(CC(=O)Nc1ccccc1)Cn1cc(CSc2nc3ccccc3o2)nn1` [BOK-1, 4–(4-((Benzo[d]oxazol-2-ylthio)methyl)-1H-1,2,3-triazol-1-yl)-3-oxo-N-phenyl butanamide]: the Selectivity index in data set [1] is given as 37.07. The IC50 was found to be 118 µg/mL (≈ 291 µM) in data set [1] (setting [3]) and 5.2 ± 0.6 µM against DprE1. Besides, the MIC50 in data set [2] is ≤ 6.25 µg/mL.
With `Cc1ccccc1NC(=O)CC(=O)Cn1cc(CSc2nc3ccccc3o2)nn1` [BOK-2, 4–(4-((Benzo[d]oxazol-2-ylthio)methyl)-1H-1,2,3-triazol-1-yl)-3-oxo-N-(o-tolyl) butanamide], the Selectivity index in data set [1] turned out to be 57.77. Moreover, the “3T3 cell IC50” value in data set [1] (MTT assay, mouse fibroblast 3T3 cells, cytotoxicity) came out at 103.92 µg/mL. Further, the IC50 in data set [1] (setting [3]) was 104 µg/mL (≈ 247 µM); against DprE1 it was 2 µM and 2.2 µM.
In data set [1], `O=C(CC(=O)Nc1ccccc1F)Cn1cc(CSc2nc3ccccc3o2)nn1` [BOK-3, 4–(4-((Benzo[d]oxazol-2-ylthio)methyl)-1H-1,2,3-triazol-1-yl)-N-(2-fluorophenyl)-3-oxobutanamide] registered a Selectivity index of 46.75. In addition, the results for the half-inhibitory concentration (IC50) (in data set [1] (setting [3]); against DprE1) were 112 µg/mL (≈ 263 µM) and 3 ± 0.6 µM, respectively.
As a reminder, the melting point is the temperature of the solid-liquid transition. Molecule `O=C(CC(=O)Nc1cccc(Cl)c1)Cn1cc(CSc2nc3ccccc3o2)nn1` [BOK-4, 4–(4-((Benzo[d]oxazol-2-ylthio)methyl)-1H-1,2,3-triazol-1-yl)-N-(3-chlorophenyl)-3-oxobutanamide] showed a melting point of 165 to 169 °C. In addition, in data set [2], the “Mtb H37Rv MIC50” value was determined as 6.9 µg/mL and the MIC50 came out at 3.7 µg/mL (≈ 8.37 µM).
For `Cc1ccc(NC(=O)CC(=O)Cn2cc(CSc3nc4ccccc4o3)nn2)cc1` [BOK-5, 4–(4-((Benzo[d]oxazol-2-ylthio)methyl)-1H-1,2,3-triazol-1-yl)-3-oxo-N-(p-tolyl) butanamide], the melting point fell in the range of 175 to 179 °C. For the same molecule, the MIC50 in data set [2] came out at 11.6 µg/mL (≈ 27.5 µM).
The like results for `O=C(CC(=O)Nc1ccc(C(F)(F)F)cc1)Cn1cc(CSc2nc3ccccc3o2)nn1` [BOK-6, 4–(4-((Benzo[d]oxazol-2-ylthio)methyl)-1H-1,2,3-triazol-1-yl)-3-oxo-N-(4-(trifluoromethyl)phenyl)butanamide] were, in that order, 185 to 189 °C and 39.6 µg/mL (≈ 83.3 µM).
In the case of `O=C(CC(=O)Nc1ccc(Cl)cc1)Cn1cc(CSc2nc3ccccc3o2)nn1` [BOK-7, 4–(4-((Benzo[d]oxazol-2-ylthio)methyl)-1H-1,2,3-triazol-1-yl)-N-(4-chlorophenyl)-3-oxo butanamide], the melting point lay within 171 to 174 °C. In data set [2], the “Mtb H37Rv MIC50” value is 6.7 µg/mL and the MIC50 amounted to 6.9 µg/mL (≈ 15.6 µM).
In the case of `O=C(CC(=O)Nc1ccc(Br)cc1)Cn1cc(CSc2nc3ccccc3o2)nn1` [BOK-8, 4–(4-((Benzo[d]oxazol-2-ylthio)methyl)-1H-1,2,3-triazol-1-yl)-N-(4-bromophenyl)-3-oxo butanamide], the melting point is 210 to 214 °C. The molecule further yielded an MIC50 in data set [2] of 44.1 µg/mL (≈ 90.7 µM).
The like results for `COc1ccc(NC(=O)CC(=O)Cn2cc(CSc3nc4ccccc4o3)nn2)cc1` [BOK-9, 4–(4-((Benzo[d]oxazol-2-ylthio)methyl)-1H-1,2,3-triazol-1-yl)-N-(4-methoxyphenyl)-3-oxo butanamide] were, in that order, 169 to 172 °C and 10.6 µg/mL (≈ 24.2 µM).
`CCOc1ccc(NC(=O)CC(=O)Cn2cc(CSc3nc4ccccc4o3)nn2)cc1` [BOK-10, 4–(4-((Benzo[d]oxazol-2-ylthio)methyl)-1H-1,2,3-triazol-1-yl)-N-(4-ethoxyphenyl)-3-oxo butanamide]: the melting point was in the range of 175 to 179 °C. In addition, the MIC50 in data set [2] was determined as 42.6 µg/mL (≈ 94.4 µM).
The molecule `O=C(Cn1cc(CSc2nc3ccccc3o2)nn1)c1ccccc1` [BOP-1, 2–(4-((Benzo[d]oxazol-2-ylthio)methyl)-1H-1,2,3-triazol-1-yl)-1-phenylethan-1-one] had a Selectivity index in data set [1] of 8.76. In addition, the half-maximal inhibitory concentration (IC50) in data set [1] (setting [3]) turned out to be 51.7 µg/mL (≈ 148 µM); against DprE1, 3.3 ± 1 µM. Besides, in data set [2], the MIC50 was ≤ 6.25 µg/mL.
`COc1ccc(C(=O)Cn2cc(CSc3nc4ccccc4o3)nn2)cc1` [BOP-2, 2–(4-((Benzo[d]oxazol-2-ylthio)methyl)-1H-1,2,3-triazol-1-yl)-1–(4-methoxyphenyl)ethan-1-one] came in with a melting point of 148 to 152 °C. Moreover, the MIC50 in data set [2] stood at 19.1 µg/mL (≈ 50.1 µM).
Take `Cc1ccc(C(=O)Cn2cc(CSc3nc4ccccc4o3)nn2)cc1` [BOP-3, 2–(4-((Benzo[d]oxazol-2-ylthio)methyl)-1H-1,2,3-triazol-1-yl)-1-(p-tolyl)ethan-1-one]: the melting point is 142 to 146 °C. The same molecule gave an MIC50 in data set [2] of 20.5 µg/mL (≈ 56.3 µM).
For `O=C(Cn1cc(CSc2nc3ccccc3o2)nn1)c1ccc(F)cc1` [BOP-4, 2–(4-((Benzo[d]oxazol-2-ylthio)methyl)-1H-1,2,3-triazol-1-yl)-1–(4-fluorophenyl)ethan-1-one], the Selectivity index in data set [1] worked out at 11.62. Also, the values for the half-maximal inhibitory concentration (IC50) (in data set [1] (setting [3]); at DprE1) were 55.8 µg/mL (≈ 151 µM) and 3.1 ± 0.7 µM, respectively. Further, the MIC50 in data set [2] was ≤ 6.25 µg/mL.
Turning to `O=C(Cn1cc(CSc2nc3ccccc3o2)nn1)c1ccc([N+](=O)[O-])cc1` [BOP-5, 2–(4-((Benzo[d]oxazol-2-ylthio)methyl)-1H-1,2,3-triazol-1-yl)-1–(4-nitrophenyl)ethan-1-one], the melting point lay in the range of 142 to 146 °C. The same molecule returned an MIC50 in data set [2] of 32.3 µg/mL (≈ 81.7 µM).
Take `CO[C@H]1/C=C/O[C@@]2(C)Oc3c(C)c(O)c4c(O)c(c(/C=N/N5CCN(C)CC5)c(O)c4c3C2=O)NC(=O)/C(C)=C\C=C\[C@H](C)[C@H](O)[C@@H](C)[C@@H](O)[C@@H](C)[C@H](OC(C)=O)[C@@H]1C` [Rifampicin, reference compound]: the MIC50 in data set [2] is < 0.004 µg/mL.
`CCOC(=O)NC(=O)c1ccsc1NC(=O)c1nc2ccccc2s1` [TCA-1, reference compound] displayed an IC50 on DprE1 of 3 ± 0.2 µM.
